# According to patent US20180280480A1, “COMPOSITIONS AND PEPTIDES HAVING DUAL GLP-1R AND GLP-2R AGONIST ACTIVITY” (priority 2014, published 2018):
# Marks after values point to notes of the source that are not given here.
# How the values were obtained:
# [1] = system: diabetic db/db (BKS.Cg-m+/+Leprdb/J) male mice; assay: Oral glucose tolerance test in diabetic db/db mice; assay type: in vivo; conditions: for Blood glucose during an oral glucose tolerance test. Area under the curve (AUC) −240 to 240 min.: Day 56, mean ± S.E.M.
# Description: A total of forty-six (46) diabetic db/db (BKS.Cg-m+/+Leprdb/J) male mice, 5 weeks old at arrival, was obtained from Janvier (France). The mice were acclimatized for two weeks in their new environment with free access to normal chow (Altromin 1324, Brogaarden A/S, Gentofte, Denmark) and domestic quality tap water. They were housed in groups of n=2 in a light-, temperature-, and humidity-controlled room (12-hour light: 12-hour dark cycle, lights On/Off at 04.00/16.00 h; 22±1° C.; 50±10% relative humidity). During the habituation period animals was accustomed to the experimental paradigm.
# Baseline, free fed blood glucose samples were obtained bi-weekly prior to study start (blood was collected from the tail vein) in order to screen for the diabetic state. The 40 animals closest to the mean BG/BW value at day −3 were randomized into 4 groups (n=10/group; the remaining 6 animals was be discarded from the main study): Group 1: Vehicle, BID, SC. Group 2: SEQ ID NO 6, 50 nmol/kg, BID, SC. Group 3: SEQ ID NO 6, 250 nmol/kg, BID, SC. […] During day 0-58 of the experiment, animals received a subcutaneous dosing twice daily at 06.00-08.00 hours and again between 02.00-04.00 hours. Dose volume was 5 ml/kg.
# On experimental day 56 an oral glucose tolerance test was performed. Animals were mildly fasted as food was removed 4 hours prior to administration of the glucose bolus. Compounds were administered 45 minutes prior to the OGTT. At t=0, mice received an oral glucose load of 2 g/kg glucose (Glucose 200 mg/ml, Fresenius Kabi, Sweden). Glucose was given as gavage via a gastrically placed tube connected to a syringe ensuring accurate dosing. Blood samples were collected from the tail vein and blood-glucose was measured at time points −60, 0, 15, 30, 60, 120 and 240 minutes after the glucose administration. Samples for measuring HbA1c was taken in parallel with blood glucose at t=−60 minutes. Mice were re-fed after the last blood sampling.
# [2] = system: Diet Induced Obese (DIO) Sprague-Dawley Rats; assay: Small and large intestinal volume (stereology) in DIO Sprague-Dawley rats; assay type: in vivo
# Description: Thirty (30) male Sprague-Dawley rats (7 weeks of age) were purchased from Taconic (Denmark) and transferred to the Gubra animal unit. During the acclimatization period, the rats were housed two per cage under a 12:12 light dark cycle (lights on from 04.00-16.00 h) at controlled temperature conditions (22±1° C.; 50±10% relative humidity). Throughout the study the rats had ad libitum access to a two choice diet—regular Altromin 1324 rodent chow (Brogaarden, Denmark) and a paste made from Chocolate spread (Nutella, Ferrero Italy), peanut butter and powdered regular Altromin 1324 rodent chow (Brogaarden, Denmark). The animals were kept on the diet for 65 weeks before experimentation. Animals were switched to single housing during the entire study period (day −6 to 25).
# The animals were randomized into three study groups (n=10 per group) based on body weight recorded on day −1 to participate in one of the following groups: Group 1: Vehicle, SC, BID. Group 2: SEQ ID NO 6, 82 nmol/kg (day 2-7), 164 nmol/kg (day 8-14) and 328 nmol/kg (day 15-25), SC, BID. […] Body weight was measured from day −3 to termination on day 25. Total body fat mass was analyzed before study start (day −1) and before termination (study day 25) by non-invasive EchoMRI-900 (EchoMRI, USA). […] Blood glucose was measured from tail vein blood before (t=−120 and 0 min, baseline) and after glucose administration (t=15, 30, 60 and 120 min). Blood samples was collected into 10 μl heparinized glass capillary tubes and immediately suspended in buffer (0.5 ml of glucose/lactate system solution (EKF-diagnostics, Germany) and analyzed for glucose on the test day using a BIOSEN c-Line glucose meter (EKF-diagnostics, Germany) according to manufacturer's instructions. On study day 25, the rats were terminated and the GI tract was removed. Intestines were flushed with saline, weighed and then fixated in 4% PFA for determination of small and large intestinal volume by stereological methods as described by Hansen et al. 2013, Am J Transl Res 5(3): 347-58).
# GLP-2R = target: T1, GLP-2R (Homo sapiens, UniProt O95838); assay: GLP2 receptor efficacy assay (in vitro functional screen, Euroscreen or DiscoveRx); conditions: Table 1
# T1 sequence (O95838 1-553): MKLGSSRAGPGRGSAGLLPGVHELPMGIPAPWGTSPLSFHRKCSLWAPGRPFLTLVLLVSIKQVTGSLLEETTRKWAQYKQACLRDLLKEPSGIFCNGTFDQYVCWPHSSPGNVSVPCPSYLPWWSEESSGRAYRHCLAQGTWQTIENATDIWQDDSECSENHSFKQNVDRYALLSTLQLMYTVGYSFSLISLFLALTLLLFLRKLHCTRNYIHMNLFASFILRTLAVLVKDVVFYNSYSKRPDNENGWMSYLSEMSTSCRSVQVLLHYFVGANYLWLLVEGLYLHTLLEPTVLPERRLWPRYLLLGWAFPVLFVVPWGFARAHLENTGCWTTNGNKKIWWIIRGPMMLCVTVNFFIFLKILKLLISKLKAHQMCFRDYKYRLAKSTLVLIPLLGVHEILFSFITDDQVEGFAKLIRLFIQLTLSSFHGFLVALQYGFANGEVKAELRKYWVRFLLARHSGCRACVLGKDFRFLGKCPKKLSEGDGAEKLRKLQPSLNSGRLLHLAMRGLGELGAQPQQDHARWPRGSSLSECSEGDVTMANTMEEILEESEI
# [3] = Day 25, 328 nmol/kg, mean ± S.E.M.
substance,measurement,setting,value
R^1-HGDGSFTSELSTYLDALAARDFIAWLIQTKITDR^2 [SEQ ID NO 6],glucose tolerance compared to liraglutide,"[1]; 250 nmol/kg, P=0.03, Student's t-test",even further improved glucose tolerance compared to animals treated with liraglutide
same,Blood glucose during an oral glucose tolerance test. Area under the curve (AUC) −240 to 240 min.,[1]; 50 nmol/kg BID SC,3543 ± 469 mmol·min/L
same,Blood glucose during an oral glucose tolerance test. Area under the curve (AUC) −240 to 240 min.,[1]; 250 nmol/kg BID SC,2472 ± 119 mmol·min/L
same,Large intestine volume,[2]; [3],2.64 ± 0.17 cm^3
same,Small intestine volume,[2]; [3],8.50 ± 0.62*** cm^3
same,effect on small intestine volume,"[2]; treatment for 25 days, stereology",striking increase in small intestine volume
same,ranking of GLP-2 receptor potency,GLP-2R,most potent GLP-2 receptor agonist
